This note sets out measurements from patent publication US12264134B2 (Merck Sharp & Dohme LLC, priority 2018, dated 2025).

A word on the IC50: it is the concentration needed to halve the response being measured.

Experiment [1] concerns the target T1, IDO1 (Homo sapiens, UniProt P14902). As to the kind of experiment: IDO1 Cellular Assay in HeLa Cells Stimulated with IFNγ. The following applies: read-out: HeLa Cell Potency, IC50. It counts as cell-based.
Experiment [2] has as its target T1, IDO1. As to the kind of experiment: IDO1 Human Whole blood Assay. More on the design: Human whole blood was drawn in sodium heparin coated tubes from healthy internal donors; from tissue; host or cells: human whole blood from healthy donors, stimulated with LPS and IFNγ. The following applies: LPS and IFNγ stimulated, 18 h, read-out: Human Whole Blood Potency, IC50. It counts as cell-based. The gist of the method:
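Heparinized healthy-donor human whole blood was preincubated 15 min with compound, then stimulated with LPS and IFNγ (100 ng/mL final) for 18 h at 37 °C. Plasma kynurenine was quantified by LC/MS/MS against a D6-kynurenine internal standard, and IC50s came from 4-parameter sigmoidal fits.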

T1 sequence (P14902 whole entry): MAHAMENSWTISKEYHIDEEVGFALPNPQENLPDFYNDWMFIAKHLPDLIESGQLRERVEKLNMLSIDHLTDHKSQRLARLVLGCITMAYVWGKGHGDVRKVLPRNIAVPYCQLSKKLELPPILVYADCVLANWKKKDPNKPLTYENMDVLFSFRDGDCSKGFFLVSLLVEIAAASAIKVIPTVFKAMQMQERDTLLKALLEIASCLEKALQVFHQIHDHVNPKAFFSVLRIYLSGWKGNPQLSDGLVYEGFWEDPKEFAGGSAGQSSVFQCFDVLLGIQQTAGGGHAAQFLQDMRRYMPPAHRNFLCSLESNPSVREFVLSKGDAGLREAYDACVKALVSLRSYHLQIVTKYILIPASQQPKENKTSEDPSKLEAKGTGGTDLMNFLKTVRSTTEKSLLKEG

In the case of `Cc1cccc(N2CCN(C(=O)Cn3nc(C(=O)N4CCC(N)CC4)c4c3C[C@H]3C[C@@H]43)CC2)c1C` [Example 479, 2-((3bR,4aR)-3-(4-aminopiperidine-1-carbonyl)-3b,4,4a,5-tetrahydro-1H-cyclopropa [3,4]cyclopenta[1,2-c]pyrazol-1-yl)-1-(4-(2,3-dimethylphenyl)piperazin-1-yl)ethanone], the IC50 on IDO1 [1] was determined as 0.00751 µM; on IDO1 [2] it was 0.23 µM.
For `Cc1cccc(N2CCN(C(=O)Cn3nc(C(=O)N4CCN(C(=O)CO)CC4)c4c3CCCC4)CC2)c1C` [Example 480, 1-(4-(2,3-dimethylphenyl)piperazin-1-yl)-2-(3-(4-(2-hydroxyacetyl)piperazin-1-carbonyl)-4,5,6,7-tetrahydro-1H-indazol-1-yl)ethanone], in that order: 0.00874 µM and 0.09 µM.
The corresponding values for `Cc1cccc(N2CCN(C(=O)Cn3nc(C(=O)N4CCC(O)CC4)c4c3CCC4)C3(CC3)C2)c1C` [compound 392] are 0.00321 µM and 2.71 µM.
